# “And” between values parts separate entries of the source, which are not always exact repeats. Identical values can stand only once. ± gives the expanded uncertainty stated by the source.
# Key:
# [1] = refractive index (Na D-line) (dimensionless); settings: 101.33 kPa, Liquid, Standard Abbe refractometry
# [2] = for surface tension liquid-gas: Wilhelmy plate method; for mass density: 298.15 K, 101.33 kPa, Liquid
# [3] = refractive index (Na D-line) (dimensionless); xn = mol fraction of the nth substance listed; settings: 100.5 kPa, Liquid, Standard Abbe refractometry, x2 = 0
# [4] = xn = mol fraction of the nth substance listed; settings: Wilhelmy plate method, x2 = 0
compound,measurement,setting,value
CC(=O)OCc1ccccc1 [benzyl ethanoate],refractive index,[1]; 288.15 K,1.50439 ± 0.00032
same,refractive index,[1]; 298.18 K,1.49982 ± 0.00032
same,refractive index,[1]; 308.15 K,1.49539 ± 0.00032
same,refractive index,[1]; 318.15 K,1.49064 ± 0.00032
same,surface tension liquid-gas,[2]; 288.15 K,37.7 ± 0.41 mN/m
same,mass density,[2],1050.75 ± 0.3 kg/m3
same,surface tension liquid-gas,[2]; 298.18 K,36.4 ± 0.41 mN/m
same,surface tension liquid-gas,[2]; 308.15 K,35.3 ± 0.41 mN/m
same,surface tension liquid-gas,[2]; 318.15 K,34.1 ± 0.41 mN/m
CCC(=O)OCc1ccccc1 [benzyl propanoate],refractive index,[1]; 288.15 K,1.4995 ± 0.00034
same,refractive index,[1]; 298.18 K,1.49498 ± 0.00034
same,refractive index,[1]; 308.15 K,1.49074 ± 0.00034
same,refractive index,[1]; 318.15 K,1.48611 ± 0.00034
same,surface tension liquid-gas,[2]; 288.15 K,36 ± 0.41 mN/m
same,mass density,[2],1027.6 ± 0.4 kg/m3
same,surface tension liquid-gas,[2]; 298.18 K,34.8 ± 0.41 mN/m
same,surface tension liquid-gas,[2]; 308.15 K,33.6 ± 0.41 mN/m
same,surface tension liquid-gas,[2]; 318.15 K,32.4 ± 0.41 mN/m
CCO [ethanol],refractive index,[1]; 288.15 K,1.3633 ± 0.0003 and 1.36333 ± 0.00031
same,refractive index,[1]; 298.18 K,1.3594 ± 0.0003 and 1.35941 ± 0.00031
same,refractive index,[1]; 308.15 K,1.3553 ± 0.0003 and 1.35531 ± 0.00031
same,refractive index,[1]; 318.15 K,1.3515 ± 0.0003 and 1.35148 ± 0.00031
same,surface tension liquid-gas,[2]; 288.15 K,23 ± 0.4 mN/m
same,mass density,[2],785 ± 0.24 kg/m3
same,surface tension liquid-gas,[2]; 298.18 K,22.3 ± 0.4 mN/m
same,surface tension liquid-gas,[2]; 308.15 K,21.5 ± 0.4 mN/m
same,surface tension liquid-gas,[2]; 318.15 K,20.6 ± 0.4 mN/m
CCO [ethanol] + CC(=O)OCc1ccccc1,refractive index,[3]; 288.15 K,1.36333 ± 0.00031
same,refractive index,[3]; 298.18 K,1.35941 ± 0.00031
same,refractive index,[3]; 308.15 K,1.35531 ± 0.00031
same,refractive index,[3]; 318.15 K,1.35148 ± 0.00031
same,surface tension liquid-gas,[4]; 288.15 K,23 ± 0.4 mN/m
same,surface tension liquid-gas,[4]; 298.18 K,22.3 ± 0.4 mN/m
same,surface tension liquid-gas,[4]; 308.15 K,21.5 ± 0.4 mN/m
same,surface tension liquid-gas,[4]; 318.15 K,20.6 ± 0.4 mN/m
CCO [ethanol] + CCC(=O)OCc1ccccc1,refractive index,[3]; 288.15 K,1.36333 ± 0.00031
same,refractive index,[3]; 298.18 K,1.35941 ± 0.00031
same,refractive index,[3]; 308.15 K,1.35531 ± 0.00031
same,refractive index,[3]; 318.15 K,1.35148 ± 0.00031
same,surface tension liquid-gas,[4]; 288.15 K,23 ± 0.4 mN/m
same,surface tension liquid-gas,[4]; 298.18 K,22.3 ± 0.4 mN/m
same,surface tension liquid-gas,[4]; 308.15 K,21.5 ± 0.4 mN/m
same,surface tension liquid-gas,[4]; 318.15 K,20.6 ± 0.4 mN/m
CCO [ethanol] + CCOC(=O)CC(C)=O,refractive index,[3]; 288.15 K,1.3633 ± 0.0003
same,refractive index,[3]; 298.18 K,1.3594 ± 0.0003
same,refractive index,[3]; 308.15 K,1.3553 ± 0.0003
same,refractive index,[3]; 318.15 K,1.3515 ± 0.0003
same,surface tension liquid-gas,[4]; 288.15 K,23 ± 0.4 mN/m
same,surface tension liquid-gas,[4]; 298.18 K,22.3 ± 0.4 mN/m
same,surface tension liquid-gas,[4]; 308.15 K,21.5 ± 0.4 mN/m
same,surface tension liquid-gas,[4]; 318.15 K,20.6 ± 0.4 mN/m
CCO [ethanol] + CCOC(=O)CC(C)C,refractive index,[3]; 288.15 K,1.36333 ± 0.00031
same,refractive index,[3]; 298.18 K,1.35941 ± 0.00031
same,refractive index,[3]; 308.15 K,1.35531 ± 0.00031
same,refractive index,[3]; 318.15 K,1.35148 ± 0.00031
same,surface tension liquid-gas,[4]; 288.15 K,23 ± 0.4 mN/m
same,surface tension liquid-gas,[4]; 298.18 K,22.3 ± 0.4 mN/m
same,surface tension liquid-gas,[4]; 308.15 K,21.5 ± 0.4 mN/m
same,surface tension liquid-gas,[4]; 318.15 K,20.6 ± 0.4 mN/m
CCO [ethanol] + CCOC(=O)c1ccccc1O,refractive index,[3]; 288.15 K,1.36333 ± 0.00031
same,refractive index,[3]; 298.18 K,1.35941 ± 0.00031
same,refractive index,[3]; 308.15 K,1.35531 ± 0.00031
same,refractive index,[3]; 318.15 K,1.35148 ± 0.00031
same,surface tension liquid-gas,[4]; 288.15 K,23 ± 0.4 mN/m
same,surface tension liquid-gas,[4]; 298.18 K,22.3 ± 0.4 mN/m
same,surface tension liquid-gas,[4]; 308.15 K,21.5 ± 0.4 mN/m
same,surface tension liquid-gas,[4]; 318.15 K,20.6 ± 0.4 mN/m
CCO [ethanol] + COC(=O)c1ccccc1,refractive index,[3]; 288.15 K,1.36333 ± 0.00031
same,refractive index,[3]; 298.18 K,1.35941 ± 0.00031
same,refractive index,[3]; 308.15 K,1.35531 ± 0.00031
same,refractive index,[3]; 318.15 K,1.35148 ± 0.00031
same,surface tension liquid-gas,[4]; 288.15 K,23 ± 0.4 mN/m
same,surface tension liquid-gas,[4]; 298.18 K,22.3 ± 0.4 mN/m
same,surface tension liquid-gas,[4]; 308.15 K,21.5 ± 0.4 mN/m
same,surface tension liquid-gas,[4]; 318.15 K,20.6 ± 0.4 mN/m
CCOC(=O)c1ccccc1O [ethyl 2-hydroxybenzoate],refractive index,[1]; 288.15 K,1.52481 ± 0.00032
same,refractive index,[1]; 298.18 K,1.52022 ± 0.00032
same,refractive index,[1]; 308.15 K,1.51573 ± 0.00032
same,refractive index,[1]; 318.15 K,1.51116 ± 0.00032
same,surface tension liquid-gas,[2]; 288.15 K,37.5 ± 0.41 mN/m
same,mass density,[2],1125 ± 0.4 kg/m3
same,surface tension liquid-gas,[2]; 298.18 K,36.3 ± 0.41 mN/m
same,surface tension liquid-gas,[2]; 308.15 K,35.2 ± 0.41 mN/m
same,surface tension liquid-gas,[2]; 318.15 K,34.4 ± 0.41 mN/m
CCOC(=O)CC(C)C [ethyl 3-methylbutanoate],refractive index,[1]; 288.15 K,1.3988 ± 0.00037
same,refractive index,[1]; 298.18 K,1.39401 ± 0.00037
same,refractive index,[1]; 308.15 K,1.38931 ± 0.00037
same,refractive index,[1]; 318.15 K,1.38458 ± 0.00037
same,surface tension liquid-gas,[2]; 288.15 K,24.4 ± 0.42 mN/m
same,mass density,[2],859.78 ± 0.82 kg/m3
same,surface tension liquid-gas,[2]; 298.18 K,23.5 ± 0.42 mN/m
same,surface tension liquid-gas,[2]; 308.15 K,22.45 ± 0.42 mN/m
same,surface tension liquid-gas,[2]; 318.15 K,21.6 ± 0.41 mN/m
CCOC(=O)CC(C)=O [ethyl 3-oxobutanoate],refractive index,[1]; 288.15 K,1.4209 ± 0.0004
same,refractive index,[1]; 298.18 K,1.4166 ± 0.0004
same,refractive index,[1]; 308.15 K,1.4125 ± 0.0004
same,refractive index,[1]; 318.15 K,1.408 ± 0.0004
same,surface tension liquid-gas,[2]; 288.15 K,33.3 ± 0.42 mN/m
same,mass density,[2],1023.45 ± 0.52 kg/m3
same,surface tension liquid-gas,[2]; 298.18 K,32.3 ± 0.42 mN/m
same,surface tension liquid-gas,[2]; 308.15 K,31.1 ± 0.42 mN/m
same,surface tension liquid-gas,[2]; 318.15 K,30 ± 0.42 mN/m
COC(=O)c1ccccc1 [methyl benzoate],refractive index,[1]; 288.15 K,1.51915 ± 0.00035
same,refractive index,[1]; 298.18 K,1.51467 ± 0.00035
same,refractive index,[1]; 308.15 K,1.50993 ± 0.00035
same,refractive index,[1]; 318.15 K,1.50514 ± 0.00035
same,surface tension liquid-gas,[2]; 288.15 K,38.6 ± 0.43 mN/m
same,mass density,[2],1083.92 ± 0.68 kg/m3
same,surface tension liquid-gas,[2]; 298.18 K,37.2 ± 0.43 mN/m
same,surface tension liquid-gas,[2]; 308.15 K,35.8 ± 0.43 mN/m
same,surface tension liquid-gas,[2]; 318.15 K,34.8 ± 0.42 mN/m

# — the NIST ThermoML archive (doi:10.1021/je060139a)
